Experimental data: article PMC12372887, “Mechanism and cellular actions of the potent AMPK inhibitor BAY-3827” (Science Advances, 2025)
Entries after “also recorded” stand apart in the source; their conditions may differ.

Legend:
[1] = tested on: AMPKα1α2+/+ control primary hepatocytes; test: Lipogenesis assay ([14C]-acetate incorporation into fatty acids); type: cell-based, mouse
Procedure: Mouse hepatocytes were isolated by collagenase perfusion as previously described ([47]). Hepatocytes were seeded in medium Eagle-199 (MEM-199) (#41150, Thermo Fisher Scientific) containing penicillin G (100 U/ml), streptomycin (100 μg/ml), and 10% (v/v) fetal bovine serum (FBS). Hepatocytes were left for attachment (3 to 4 hours) and serum-starved overnight at 37°C with 5% CO2 in MEM-199 supplemented with penicillin G (100 U/ml), streptomycin (100 μg/ml), 10 nM insulin, and 100 nM dexamethasone. […] Cells were then harvested in 0.5 ml of phosphate-buffered saline (PBS), transferred into 1 ml of 40% KOH and 2 ml of methanol followed by 1-hour incubation at 80°C. Lipids were […] by acidifying the samples in 37% HCl and extracted with petroleum ether. Extracts were allowed to evaporate to dryness and then dissolved in Ultima Gold scintillation fluid for determination of [^14C]-acetate incorporation into lipids.

HIPK1 = HIPK1 (Homo sapiens, UniProt Q86Z02); test: Kinase panel (140 human kinases); type: biochemical
Procedure: (§1) BAY-3827 and BAY-974 were assayed against a 140-human kinase panel at 0.1 μM and at 1 μM (BAY-3827) concentration in a [γ-^33P] ATP–based radioactive filter binding assay ([31], [65]) setup in duplicates with reported mean remaining kinase percentage activity alongside SD (table S1). Assays were performed at either 5, 20, or 50 μM ATP to be at or below the Michaelis constant for ATP for each enzyme and conducted by the services offered by the International Centre for Kinase Profiling at MRC Protein Phosphorylation and Ubiquitylation Unit, University of Dundee (https://www.kinase-screen.mrc.ac.uk/services/premier-screen).

STK33 = STK33 (Homo sapiens, UniProt Q9BYT3); test: Kinase panel (140 human kinases); type: biochemical
Procedure: as §1

Lck = Lck (Homo sapiens, UniProt P06239); test: Kinase panel (140 human kinases); type: biochemical
Procedure: as §1

TBK1 = molecular target: T1, TBK1 (Homo sapiens, UniProt Q9UHD2); test: Kinase panel (140 human kinases); type: biochemical
T1 sequence (Q9UHD2 1-729): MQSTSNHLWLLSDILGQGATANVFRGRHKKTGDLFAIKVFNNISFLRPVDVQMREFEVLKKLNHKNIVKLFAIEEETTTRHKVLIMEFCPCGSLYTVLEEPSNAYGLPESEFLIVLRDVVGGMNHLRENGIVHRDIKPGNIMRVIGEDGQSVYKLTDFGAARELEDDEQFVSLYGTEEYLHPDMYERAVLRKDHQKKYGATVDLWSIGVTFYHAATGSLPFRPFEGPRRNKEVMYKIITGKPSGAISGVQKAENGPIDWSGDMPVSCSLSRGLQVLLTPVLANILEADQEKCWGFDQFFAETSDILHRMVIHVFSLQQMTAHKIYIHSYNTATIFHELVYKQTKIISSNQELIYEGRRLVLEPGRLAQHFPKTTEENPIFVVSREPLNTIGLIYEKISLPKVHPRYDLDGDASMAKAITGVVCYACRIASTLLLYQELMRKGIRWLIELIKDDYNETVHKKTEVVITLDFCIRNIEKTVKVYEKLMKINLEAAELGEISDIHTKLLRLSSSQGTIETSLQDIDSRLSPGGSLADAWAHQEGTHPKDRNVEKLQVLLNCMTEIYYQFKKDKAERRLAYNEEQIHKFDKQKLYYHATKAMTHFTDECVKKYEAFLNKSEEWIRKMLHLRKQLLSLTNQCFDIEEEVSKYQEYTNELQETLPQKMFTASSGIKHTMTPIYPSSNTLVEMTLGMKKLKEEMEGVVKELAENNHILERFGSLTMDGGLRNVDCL
Procedure: as §1

TTK = TTK (Homo sapiens, UniProt P33981); test: Kinase panel (140 human kinases); type: biochemical
Procedure: as §1

GCK = GCK (Homo sapiens, UniProt Q12851); test: Kinase panel (140 human kinases); type: biochemical
Procedure: as §1

JAK3 = JAK3 (Homo sapiens, UniProt P52333); test: Kinase panel (140 human kinases); type: biochemical
Procedure: as §1

ERK8 = ERK8 (Homo sapiens, UniProt Q8TD08); test: Kinase panel (140 human kinases); type: biochemical
Procedure: as §1

DAPK1 = DAPK1 (Homo sapiens, UniProt P53355); test: Kinase panel (140 human kinases); type: biochemical
Procedure: as §1

MELK = MELK (Homo sapiens, UniProt Q14680); test: Kinase panel (140 human kinases); type: biochemical
Procedure: as §1

PKCz = PKCz (Homo sapiens, UniProt Q05513); test: Kinase panel (140 human kinases); type: biochemical
Procedure: as §1

ROCK 2 = ROCK 2 (Homo sapiens, UniProt O75116); test: Kinase panel (140 human kinases); type: biochemical
Procedure: as §1

IKKe = IKKe (Homo sapiens, UniProt Q14164); test: Kinase panel (140 human kinases); type: biochemical
Procedure: as §1

MST2 = MST2 (Homo sapiens, UniProt Q13188); test: Kinase panel (140 human kinases); type: biochemical
Procedure: as §1

MAPKAP-K3 = MAPKAP-K3 (Homo sapiens, UniProt Q16644); test: Kinase panel (140 human kinases); type: biochemical
Procedure: as §1

EPH-B2 = EPH-B2 (Homo sapiens, UniProt P29323); test: Kinase panel (140 human kinases); type: biochemical
Procedure: as §1

IRAK4 = molecular target: T2, IRAK4 (Homo sapiens, UniProt Q9NWZ3); test: Kinase panel (140 human kinases); type: biochemical
T2 sequence (Q9NWZ3 1-460): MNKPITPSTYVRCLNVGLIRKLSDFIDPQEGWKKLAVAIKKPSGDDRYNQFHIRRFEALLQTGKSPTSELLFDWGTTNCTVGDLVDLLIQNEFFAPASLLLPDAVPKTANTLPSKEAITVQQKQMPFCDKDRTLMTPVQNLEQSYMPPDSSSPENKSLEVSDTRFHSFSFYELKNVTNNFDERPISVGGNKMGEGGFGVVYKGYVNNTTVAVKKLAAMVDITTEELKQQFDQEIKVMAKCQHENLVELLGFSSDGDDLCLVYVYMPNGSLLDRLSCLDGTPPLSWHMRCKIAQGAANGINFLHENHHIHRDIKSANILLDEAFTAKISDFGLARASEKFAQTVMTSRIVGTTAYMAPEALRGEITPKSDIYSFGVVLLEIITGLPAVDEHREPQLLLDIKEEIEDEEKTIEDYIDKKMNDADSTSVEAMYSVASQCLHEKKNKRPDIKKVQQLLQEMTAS
Procedure: as §1

DYRK1A = DYRK1A (Homo sapiens, UniProt Q13627); test: Kinase panel (140 human kinases); type: biochemical
Procedure: as §1

[2] = 1 μM, cross-referenced with screen data of ref 37, read-out: activity remaining after treatment

Sequence of MELK (Q14680 whole entry): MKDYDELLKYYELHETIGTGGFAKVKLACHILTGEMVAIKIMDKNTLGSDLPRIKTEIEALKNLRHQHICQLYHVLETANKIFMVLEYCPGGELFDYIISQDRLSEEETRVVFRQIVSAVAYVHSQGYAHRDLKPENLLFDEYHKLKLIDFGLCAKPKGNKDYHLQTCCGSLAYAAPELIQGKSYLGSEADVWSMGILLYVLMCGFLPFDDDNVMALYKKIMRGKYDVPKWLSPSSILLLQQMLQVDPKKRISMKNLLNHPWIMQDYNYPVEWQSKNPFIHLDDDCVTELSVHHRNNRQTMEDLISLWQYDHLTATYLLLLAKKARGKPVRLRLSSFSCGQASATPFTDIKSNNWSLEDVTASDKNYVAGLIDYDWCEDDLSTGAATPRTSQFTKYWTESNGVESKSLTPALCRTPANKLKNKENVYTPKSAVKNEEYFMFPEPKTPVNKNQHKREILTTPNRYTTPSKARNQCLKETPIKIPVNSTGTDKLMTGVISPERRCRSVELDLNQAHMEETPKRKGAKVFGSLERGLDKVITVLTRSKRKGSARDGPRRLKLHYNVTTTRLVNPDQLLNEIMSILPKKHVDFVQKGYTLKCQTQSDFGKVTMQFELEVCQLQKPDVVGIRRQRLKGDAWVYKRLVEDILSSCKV
Sequence of PKCz (Q05513 whole entry): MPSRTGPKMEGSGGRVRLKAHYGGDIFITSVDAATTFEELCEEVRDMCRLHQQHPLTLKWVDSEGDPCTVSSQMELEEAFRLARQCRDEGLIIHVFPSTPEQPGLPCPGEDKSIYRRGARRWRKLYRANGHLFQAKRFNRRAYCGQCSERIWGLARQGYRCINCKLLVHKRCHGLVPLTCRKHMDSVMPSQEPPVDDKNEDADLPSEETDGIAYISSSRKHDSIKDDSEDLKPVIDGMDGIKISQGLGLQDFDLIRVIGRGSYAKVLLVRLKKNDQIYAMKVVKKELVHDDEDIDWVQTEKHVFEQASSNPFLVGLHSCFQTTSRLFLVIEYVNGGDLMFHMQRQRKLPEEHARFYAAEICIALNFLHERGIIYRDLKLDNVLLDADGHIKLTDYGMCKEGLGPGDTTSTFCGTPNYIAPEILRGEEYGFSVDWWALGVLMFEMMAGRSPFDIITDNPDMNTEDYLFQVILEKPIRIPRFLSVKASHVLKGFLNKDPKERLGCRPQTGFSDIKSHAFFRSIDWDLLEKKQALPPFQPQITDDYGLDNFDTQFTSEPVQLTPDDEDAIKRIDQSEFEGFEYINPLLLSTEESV
Sequence of TTK (P33981 whole entry): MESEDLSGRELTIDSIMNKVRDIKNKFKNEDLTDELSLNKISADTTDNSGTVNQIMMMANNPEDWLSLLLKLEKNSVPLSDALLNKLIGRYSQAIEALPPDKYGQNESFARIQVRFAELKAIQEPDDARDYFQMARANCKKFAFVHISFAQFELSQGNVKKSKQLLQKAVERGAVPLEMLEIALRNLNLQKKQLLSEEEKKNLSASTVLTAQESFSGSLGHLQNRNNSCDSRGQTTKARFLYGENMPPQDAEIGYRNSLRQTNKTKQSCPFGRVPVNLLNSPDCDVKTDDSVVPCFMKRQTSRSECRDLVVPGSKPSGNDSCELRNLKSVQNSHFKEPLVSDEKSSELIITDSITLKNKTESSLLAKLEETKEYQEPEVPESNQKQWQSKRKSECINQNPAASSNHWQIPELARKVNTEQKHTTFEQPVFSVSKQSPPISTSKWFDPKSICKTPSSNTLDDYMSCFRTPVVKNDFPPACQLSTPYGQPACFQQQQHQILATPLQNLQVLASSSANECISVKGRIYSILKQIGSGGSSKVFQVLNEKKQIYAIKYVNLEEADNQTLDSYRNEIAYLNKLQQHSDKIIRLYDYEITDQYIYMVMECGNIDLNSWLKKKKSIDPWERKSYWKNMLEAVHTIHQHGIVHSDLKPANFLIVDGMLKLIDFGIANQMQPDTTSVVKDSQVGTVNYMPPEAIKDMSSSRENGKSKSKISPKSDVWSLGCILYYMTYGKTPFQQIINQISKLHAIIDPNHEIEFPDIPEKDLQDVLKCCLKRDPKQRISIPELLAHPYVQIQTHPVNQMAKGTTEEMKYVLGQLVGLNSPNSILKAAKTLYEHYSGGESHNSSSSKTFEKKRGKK
Sequence of ROCK 2 (O75116 whole entry): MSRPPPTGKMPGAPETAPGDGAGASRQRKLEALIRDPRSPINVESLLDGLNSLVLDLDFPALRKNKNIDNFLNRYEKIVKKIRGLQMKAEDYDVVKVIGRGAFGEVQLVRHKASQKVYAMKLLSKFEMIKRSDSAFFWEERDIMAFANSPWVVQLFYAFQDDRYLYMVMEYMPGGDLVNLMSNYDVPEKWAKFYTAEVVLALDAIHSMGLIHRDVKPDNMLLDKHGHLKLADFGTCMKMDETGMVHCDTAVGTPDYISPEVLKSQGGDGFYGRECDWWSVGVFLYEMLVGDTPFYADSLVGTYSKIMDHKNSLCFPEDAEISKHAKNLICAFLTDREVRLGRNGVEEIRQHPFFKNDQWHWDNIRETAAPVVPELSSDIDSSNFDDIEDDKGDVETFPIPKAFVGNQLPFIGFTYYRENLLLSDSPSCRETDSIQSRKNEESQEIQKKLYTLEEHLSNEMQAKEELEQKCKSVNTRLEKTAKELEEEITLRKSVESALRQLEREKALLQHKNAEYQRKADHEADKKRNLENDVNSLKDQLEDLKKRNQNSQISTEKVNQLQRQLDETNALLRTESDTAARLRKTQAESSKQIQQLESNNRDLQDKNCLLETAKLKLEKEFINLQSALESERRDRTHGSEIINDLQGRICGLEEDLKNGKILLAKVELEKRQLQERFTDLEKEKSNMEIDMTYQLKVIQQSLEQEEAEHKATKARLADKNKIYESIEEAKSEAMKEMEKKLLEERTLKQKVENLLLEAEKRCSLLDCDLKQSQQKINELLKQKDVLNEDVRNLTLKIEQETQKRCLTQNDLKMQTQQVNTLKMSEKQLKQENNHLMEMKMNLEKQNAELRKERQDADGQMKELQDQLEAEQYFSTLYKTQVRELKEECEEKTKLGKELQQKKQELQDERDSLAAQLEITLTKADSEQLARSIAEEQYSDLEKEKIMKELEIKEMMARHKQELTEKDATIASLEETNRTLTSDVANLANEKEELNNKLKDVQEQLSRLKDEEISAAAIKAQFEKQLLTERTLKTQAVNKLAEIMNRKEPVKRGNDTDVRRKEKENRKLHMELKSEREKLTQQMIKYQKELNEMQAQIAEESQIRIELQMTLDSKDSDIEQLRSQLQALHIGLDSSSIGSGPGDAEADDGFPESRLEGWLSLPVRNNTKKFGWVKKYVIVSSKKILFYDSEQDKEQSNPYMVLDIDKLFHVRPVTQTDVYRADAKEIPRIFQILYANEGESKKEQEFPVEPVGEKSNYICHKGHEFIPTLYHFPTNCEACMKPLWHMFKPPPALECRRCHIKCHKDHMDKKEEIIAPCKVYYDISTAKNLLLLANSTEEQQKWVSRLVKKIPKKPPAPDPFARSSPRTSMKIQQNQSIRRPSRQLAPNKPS
Sequence of EPH-B2 (P29323 19-1055): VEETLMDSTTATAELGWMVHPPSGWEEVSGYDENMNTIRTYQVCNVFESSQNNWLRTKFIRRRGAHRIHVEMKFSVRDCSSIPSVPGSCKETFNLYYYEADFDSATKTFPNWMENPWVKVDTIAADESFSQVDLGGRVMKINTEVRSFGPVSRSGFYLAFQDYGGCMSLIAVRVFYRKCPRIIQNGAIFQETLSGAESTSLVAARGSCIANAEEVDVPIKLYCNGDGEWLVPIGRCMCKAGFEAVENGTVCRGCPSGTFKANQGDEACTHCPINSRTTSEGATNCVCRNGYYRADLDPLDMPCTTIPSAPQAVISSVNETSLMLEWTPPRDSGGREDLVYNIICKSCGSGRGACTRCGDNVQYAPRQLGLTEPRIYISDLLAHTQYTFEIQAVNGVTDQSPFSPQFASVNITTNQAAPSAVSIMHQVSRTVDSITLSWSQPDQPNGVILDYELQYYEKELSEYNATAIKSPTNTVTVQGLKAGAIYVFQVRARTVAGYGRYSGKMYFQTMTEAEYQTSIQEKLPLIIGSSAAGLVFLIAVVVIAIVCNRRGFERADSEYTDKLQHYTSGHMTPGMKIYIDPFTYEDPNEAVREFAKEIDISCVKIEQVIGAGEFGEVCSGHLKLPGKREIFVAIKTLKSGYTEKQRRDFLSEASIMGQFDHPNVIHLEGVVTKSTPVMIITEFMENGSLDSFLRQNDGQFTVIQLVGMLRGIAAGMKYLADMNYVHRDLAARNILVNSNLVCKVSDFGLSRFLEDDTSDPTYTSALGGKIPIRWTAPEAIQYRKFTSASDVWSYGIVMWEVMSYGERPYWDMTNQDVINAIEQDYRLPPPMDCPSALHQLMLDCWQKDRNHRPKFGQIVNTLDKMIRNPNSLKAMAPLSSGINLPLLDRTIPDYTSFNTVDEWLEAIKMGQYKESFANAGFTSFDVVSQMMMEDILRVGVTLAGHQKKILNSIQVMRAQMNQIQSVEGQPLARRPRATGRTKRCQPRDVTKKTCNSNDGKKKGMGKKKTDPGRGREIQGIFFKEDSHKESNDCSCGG
Sequence of Lck (P06239 whole entry): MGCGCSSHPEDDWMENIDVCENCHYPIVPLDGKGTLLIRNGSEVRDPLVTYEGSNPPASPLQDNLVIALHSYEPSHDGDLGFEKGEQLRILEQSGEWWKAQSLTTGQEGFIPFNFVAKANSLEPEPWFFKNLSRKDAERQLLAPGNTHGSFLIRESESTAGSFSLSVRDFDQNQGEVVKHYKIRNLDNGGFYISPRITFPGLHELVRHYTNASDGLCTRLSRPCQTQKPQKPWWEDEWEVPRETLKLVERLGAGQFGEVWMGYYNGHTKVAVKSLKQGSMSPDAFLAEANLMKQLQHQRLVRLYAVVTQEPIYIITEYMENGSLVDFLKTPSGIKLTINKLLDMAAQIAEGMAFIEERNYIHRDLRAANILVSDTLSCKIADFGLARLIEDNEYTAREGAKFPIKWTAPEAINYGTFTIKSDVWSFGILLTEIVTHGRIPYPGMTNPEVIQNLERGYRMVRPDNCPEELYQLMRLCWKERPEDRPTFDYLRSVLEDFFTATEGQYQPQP

Row | Compound | remaining activity at 0.1 µM (HIPK1) | remaining activity at 0.1 µM (STK33) | remaining activity at 0.1 µM (Lck) | remaining activity at 0.1 µM (TBK1) | remaining activity at 0.1 µM (TTK) | remaining activity at 0.1 µM (GCK) | remaining activity at 0.1 µM (JAK3) | remaining activity at 0.1 µM (ERK8) | remaining activity at 0.1 µM (DAPK1) | remaining activity at 0.1 µM (MELK) | remaining activity at 0.1 µM (PKCz) | remaining activity at 0.1 µM (ROCK 2) | remaining activity at 0.1 µM (IKKe) | remaining activity at 0.1 µM (MST2) | remaining activity at 0.1 µM (MAPKAP-K3) | remaining activity at 0.1 µM (EPH-B2) | remaining activity at 0.1 µM (IRAK4) | remaining activity at 0.1 µM (DYRK1A) | other results
1 | CC1=C(C#N)C(c2ccc3c(c2)c(NC(=O)c2ccccc2C)nn3C)C(C#N)=C(C)N1 [BAY-974, N-[5-(3,5-dicyano-2,6-dimethyl-1,4-dihydropyridin-4-yl)-1-methylindazol-3-yl]-2-methylbenzamide] | 91% | 82% | 58% | 91% | 79% | 65% | 106% | 91% | 109% | 90% | 103% | 98% | 101% | 94% | 81% | 82% | 92% | 101% | effect on lipogenesis ([1]; 5 μM, vehicle- and MK-8722–treated conditions): no effect
2 | CCc1ccccc1C(=O)Nc1n[nH]c2c(C)c(F)c(C3C(C#N)=C(C)N(C)C(C)=C3C#N)cc12 [BAY-3827, N-[5-(3,5-dicyano-1,2,6-trimethyl-4H-pyridin-4-yl)-6-fluoro-7-methyl-1H-indazol-3-yl]-2-ethylbenzamide] | 94% | 94% | 93% | ≤ 50% | 74% | 105% | 90% | 66% | 94% | 81% | 112% | 83% | 85% | 85% | 101% | 98% | 111% | 96% | rescue of MK-8722–mediated inhibition of lipogenesis ([1]; 2.5 and 5 μM, + MK-8722 (10 μM)): dose-dependently rescued; also recorded: fully reversing; stimulation of lipogenesis ([1]; compound alone, 2.5 and 5 μM): 70 to 90%; inhibition at 0.1 µM (TBK1): ~60%; remaining activity at 1 µM (MELK; [2]): ≤ 50%; remaining activity at 1 µM (IRAK4; [2]): ≥ 99%
